Key:
Human CD73 = target: T1, Human CD73 (Homo sapiens, UniProt P21589); assay: CD73 Enzyme Assay; assay type: biochemical; settings: 0.25 nM hCD73, 25 μM AMP, kinetic read at 360 nm; read-out: CD73 Enzyme Assay IC50
T1 construct: purchased R&D Systems; host or cells: CHO cells
T1 sequence (P21589 27-549): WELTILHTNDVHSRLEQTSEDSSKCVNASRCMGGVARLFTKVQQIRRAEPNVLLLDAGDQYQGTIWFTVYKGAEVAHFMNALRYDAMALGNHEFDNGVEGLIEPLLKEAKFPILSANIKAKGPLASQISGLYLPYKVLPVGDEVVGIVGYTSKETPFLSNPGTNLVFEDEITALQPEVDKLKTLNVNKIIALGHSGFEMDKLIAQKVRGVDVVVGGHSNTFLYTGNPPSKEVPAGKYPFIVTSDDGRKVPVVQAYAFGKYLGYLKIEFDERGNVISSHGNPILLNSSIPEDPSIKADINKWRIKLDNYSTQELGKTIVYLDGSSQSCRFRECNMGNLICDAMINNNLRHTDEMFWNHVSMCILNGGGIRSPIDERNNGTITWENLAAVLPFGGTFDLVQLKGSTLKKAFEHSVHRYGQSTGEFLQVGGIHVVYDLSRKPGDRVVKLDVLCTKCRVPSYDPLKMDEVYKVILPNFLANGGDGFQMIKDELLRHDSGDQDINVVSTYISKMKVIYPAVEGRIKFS

[1] = target: T2, CD73 on U138 human neuroglioma cells (Homo sapiens, UniProt P21589); assay: CD73 Cell-Based Assay; settings: U138 cells, AMP substrate, 2 hours at 37° C., inorganic phosphate by malachite green
T2 construct: U138 cells were obtained from ATCC and cultured in DMEM with 10% FBS; host or cells: U138 human neuroglioma cells
T2 sequence (P21589 27-549): T1 sequence (P21589 27-549)
In short: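 Whole U138 cells washed free of phosphate were incubated with 200 μM AMP (mixture concentration before equal-volume addition) plus compound in HEPES-buffered saline, pH 7.4, for 2 h at 37 °C, 5% CO2. Adenosine-forming activity read as inorganic phosphate released into supernatant by malachite green.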

Row | Compound | IC50 (Human CD73) [µM] | IC50 [1] [µM]
1 | C[C@H](Nc1nc(C#N)nc2c1ccn2[C@@H]1O[C@H](COCP(=O)(O)O)[C@@H](O)[C@H]1O)c1ccc(C#N)cc1 [Compound 141, [(2R,3S,4R,5R)-5-[2-cyano-4-[[(1S)-1-(4-cyanophenyl)ethyl]-amino]pyrrolo[2,3-d]-pyrimidin-7-yl]-3,4-dihydroxy-tetrahydro-furan-2-yl]methoxy-methylphosphonic acid] | < 0.01 | < 0.01
2 | N#Cc1nc(NC2CCC(F)(F)CC2)c2ccn([C@@H]3O[C@H](COCP(=O)(O)O)[C@@H](O)[C@H]3O)c2n1 [Compound 142, [(2R,3S,4R,5R)-5-[2-cyano-4-[(4,4-difluoro-cyclohexyl)amino]-pyrrolo[2,3-d]-pyrimidin-7-yl]-3,4-dihydroxy-tetrahydro-furan-2-yl]methoxy-methylphosphonic acid] | < 0.01 | < 0.01
3 | N#Cc1nc(N2CCCCC2)c2ccn([C@@H]3O[C@H](COCP(=O)(O)O)[C@@H](O)[C@H]3O)c2n1 [Compound 143, [(2R,3S,4R,5R)-5-[2-cyano-4-(1-piperidyl)-pyrrolo[2,3-d]-pyrimidin-7-yl]-3,4-dihydroxy-tetrahydro-furan-2-yl]methoxy-methylphosphonic acid] | < 0.01 | 0.01 to 0.1
4 | C[C@@H](Nc1nc(Cl)nc2c1ccn2[C@@H]1O[C@H](COCP(=O)(O)O)[C@@H](O)[C@H]1O)c1ccc(F)cc1F [Compound 144, [(2R,3S,4R,5R)-5-[2-chloro-4-[[(1R)-1-(2,4-difluorophenyl)-ethyl]amino]pyrrolo-[2,3-d]pyrimidin-7-yl]-3,4-dihydroxy-tetrahydrofuran-2-yl]-methoxymethylphos-phonic acid] | < 0.01 | < 0.01
5 | C[C@@H](Nc1nc(C#N)nc2c1ccn2[C@@H]1O[C@H](COCP(=O)(O)O)[C@@H](O)[C@H]1O)c1ccc(F)cn1 [Compound 145, [(2R,3S,4R,5R)-5-[2-cyano-4-[[(1R)-1-(5-fluoro-2-pyridyl)ethyl]-amino]pyrrolo[2,3-d]-pyrimidin-7-yl]-3,4-dihydroxy-tetrahydro-furan-2-yl]methoxy-methylphosphonic acid] | 0.1 to 1 | 0.01 to 0.1
6 | C[C@H](Nc1nc(C#N)nc2c1ccn2[C@@H]1O[C@H](COCP(=O)(O)O)[C@@H](O)[C@H]1O)c1ccc(F)cn1 [Compound 146] | 0.1 to 1 | 0.01 to 0.1
7 | C[C@H](Nc1nc(C#N)nc2c1ccn2[C@@H]1O[C@H](COCP(=O)(O)O)[C@@H](O)[C@H]1O)c1ccc(C(F)(F)F)cc1 [Compound 147, [(2R,3S,4R,5R)-5-[2-cyano-4-[[(1S)-1-[4-(trifluoromethyl)-phenyl]ethyl]amino]-pyrrolo[2,3-d]-pyrimidin-7-yl]-3,4-dihydroxy-tetrahydro-furan-2-yl]methoxy-methylphosphonic acid] | 0.01 to 0.1 | < 0.01
8 | C[C@H](Nc1nc(Cl)nc2c1ncn2[C@@H]1O[C@H](CS(=O)(=O)CP(=O)(O)O)[C@@H](O)[C@H]1O)c1ccccc1 [Compound 152, [(2S,3S,4R,5R)-5-[2-chloro-6-[[(1S)-1-phenylethyl]amino]-purin-9-yl]-3,4-dihydroxy-tetrahydro-furan-2-yl]methyl-sulfonylmethylphos-phonic acid] | 0.01 to 0.1 | 0.01 to 0.1
9 | C[C@H](Nc1nc(Cl)nc2c1ccn2[C@@H]1O[C@H](CS(=O)(=O)CP(=O)(O)O)[C@@H](O)[C@H]1O)c1ccccc1 [Compound 153, [(2S,3S,4R,5R)-5-[2-chloro-4-[[(1S)-1-phenylethyl]amino]-pyrrolo[2,3-d]-pyrimidin-7-yl]-3,4-dihydroxy-tetrahydro-furan-2-yl]methyl-sulfonylmethylphos-phonic acid] | < 0.01 | 0.01 to 0.1
10 | C[C@@H](Nc1nc(Cl)nc2c1ccn2[C@@H]1O[C@H](CS(=O)(=O)CP(=O)(O)O)[C@@H](O)[C@H]1O)c1ccccc1 [Compound 154, [(2S,3S,4R,5R)-5-[2-chloro-4-[[(1R)-1-phenylethyl]amino]-pyrrolo[2,3-d]-pyrimidin-7-yl]-3,4-dihydroxy-tetrahydro-furan-2-yl]methyl-sulfonylmethylphos-phonic acid] | < 0.01 | < 0.01
11 | O=P(O)(O)CS(=O)(=O)C[C@H]1O[C@@H](n2ccc3c(NC4CCCC4)nc(Cl)nc32)[C@H](O)[C@@H]1O [Compound 155, (((((2S,3S,4R,5R)-5-(2-chloro-4-(cyclopentylamino)-7H-pyrrolo[2,3-d]pyrimidin-7-yl)-3,4-dihydroxytetrahydrofuran-2-yl)methyl)sulfonyl)methyl)phosphonic acid] | < 0.01 | < 0.01
12 | O=P(O)(O)CS(=O)(=O)C[C@H]1O[C@@H](n2ccc3c(N4CC5CCCC5C4)nc(Cl)nc32)[C@H](O)[C@@H]1O (stereo partly drawn) [Compound 156, [(2S,3S,4R,5R)-5-[4-(3,3a,4,5,6,6a-hexa-hydro-1H-cyclopenta-[c]pyrrol-2-yl)-2-chloro-pyrrolo[2,3-d]-pyrimidin-7-yl]-3,4-dihydroxy-tetrahydro-hydrofuran-2-yl]-methylsulfonylmethyl-phosphonic acid] | < 0.01 | < 0.01
13 | C[C@H](c1ccccc1)N(C)c1nc(Cl)nc2c1ccn2[C@@H]1O[C@H](CS(=O)(=O)CP(=O)(O)O)[C@@H](O)[C@H]1O [Compound 157, [(2S,3S,4R,5R)-5-[2-chloro-4-[methyl-[(1R)-1-phenylethyl]-amino]pyrrolo[2,3-d]-pyrimidin-7-yl]-3,4-dihydroxy-tetrahydro-furan-2-yl]methyl-sulfonylmethylphos-phonic acid] | < 0.01 | < 0.01
14 | N#Cc1nc(N2CC3CCCC3C2)c2ccn([C@@H]3O[C@H](CS(=O)(=O)CP(=O)(O)O)[C@@H](O)[C@H]3O)c2n1 (stereo partly drawn) [Compound 158, [(2S,3S,4R,5R)-5-[4-(3,3a,4,5,6,6a-hexa-hydro-1H-cyclopenta-[c]pyrrol-2-yl)-2-cyano-pyrrolo[2,3-d]-pyrimidin-7-yl]-3,4-dihydroxy-tetrahydro-furan-2-yl]methyl-sulfonylmethylphos-phonic acid] | < 0.01 | < 0.01
15 | O=P(O)(O)CS(=O)(=O)C[C@H]1O[C@@H](n2ccc3c(NC4CC5CC5C4)nc(Cl)nc32)[C@H](O)[C@@H]1O (stereo partly drawn) [Compound 159, [(2S,3S,4R,5R)-5-[4-(3-bicyclo[3.1.0]-hexanylamino)-2-chloro-pyrrolo[2,3-d]-pyrimidin-7-yl]-3,4-dihydroxy-tetrahydro-furan-2-yl]methyl-sulfonylmethylphos-phonic acid] | < 0.01 | < 0.01
16 | CC(C)OP(=O)(O)CS(=O)(=O)C[C@H]1O[C@@H](n2ccc3c(NC4CCCC4)nc(Cl)nc32)[C@H](O)[C@@H]1O [Compound 160, [(2S,3S,4R,5R)-5-[2-chloro-4-(cyclo-pentylamino)pyrrolo-[2,3-d]pyrimidin-7-yl]-3,4-dihydroxy-tetrahydrofuran-2-yl]methylsulfonyl-methyl-isopropoxy-phosphinic acid] | 0.1 to 1 | 0.1 to 1
17 | CC(C)(C)C(=O)OCOP(=O)(O)CS(=O)(=O)C[C@H]1O[C@@H](n2ccc3c(NC4CCCC4)nc(Cl)nc32)[C@H](O)[C@@H]1O [Compound 161, [(2S,3S,4R,5R)-5-[2-chloro-4-(cyclopentyl-amino)pyrrolo[2,3-d]-pyrimidin-7-yl]-3,4-dihydroxy-tetrahydro-furan-2-yl]methyl-sulfonylmethyl-(2,2-dimethylpropanoyl-oxymethoxy)phos-phinic acid] | < 0.01 | < 0.01
18 | CC(C)Nc1nc(Cl)nc2c1ccn2[C@@H]1O[C@H](CS(=O)(=O)CP(=O)(O)O)[C@@H](O)[C@H]1O [Compound 162, [(2S,3S,4R,5R)-5-[2-chloro-4-(isopropyl-amino)pyrrolo[2,3-d]-pyrimidin-7-yl]-3,4-dihydroxy-tetrahydro-furan-2-yl]methyl-sulfonylmethylphos-phonic acid] | 0.01 to 0.1 | 0.01 to 0.1
19 | O=P(O)(O)CS(=O)(=O)C[C@H]1O[C@@H](n2ccc3c(N4CCCC4)nc(Cl)nc32)[C@H](O)[C@@H]1O [Compound 163, [(2S,3S,4R,5R)-5-(2-chloro-4-pyrrolidin-1-yl-pyrrolo[2,3-d]-pyrimidin-7-yl)-3,4-dihydroxy-tetrahydro-furan-2-yl]methyl-sulfonylmethylphos-phonic acid] | 0.01 to 0.1 | 0.01 to 0.1
20 | O=P(O)(O)CS(=O)(=O)C[C@H]1O[C@@H](n2ccc3c(N4CCC(F)(F)C4)nc(Cl)nc32)[C@H](O)[C@@H]1O [Compound 164, [(2S,3S,4R,5R)-5-[2-chloro-4-(3,3-difluoro-pyrrolidin-1-yl)-pyrrolo[2,3-d]-pyrimidin-7-yl]-3,4-dihydroxy-tetrahydro-furan-2-yl]methyl-sulfonylmethylphos-phonic acid] | < 0.01 | < 0.01
